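Following 48 hours of exposure in 96-well plates, responses at five concentrations were used to interpolate endpoints linearly. Here, GI50 denotes the concentration required for 50% inhibition of growth. TGI: total growth inhibition.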
Columns and labels:
Assay in all cases: NCI tumour cell line growth inhibition, 48 h
MOLT-4 leukemia = system: MOLT-4 leukemia
HT29 colon = system: HT29 colon
SN12C renal = system: SN12C renal
SNB-75 CNS = system: SNB-75 CNS
KM12 colon = system: KM12 colon
MCF7 breast = system: MCF7 breast
COLO 205 colon = system: COLO 205 colon
OVCAR-8 ovarian = system: OVCAR-8 ovarian
MALME-3M melanoma = system: MALME-3M melanoma
MDA-MB-435 = system: MDA-MB-435
HL-60(TB) leukemia = system: HL-60(TB) leukemia
A498 renal = system: A498 renal
OVCAR-5 ovarian = system: OVCAR-5 ovarian
OVCAR-4 ovarian = system: OVCAR-4 ovarian
EKVX NSCLC = system: EKVX NSCLC
K-562 leukemia = system: K-562 leukemia
NCI-H23 lung = system: NCI-H23 lung
NCI-H522 lung = system: NCI-H522 lung
SR leukemia = system: SR leukemia
T-47D breast = system: T-47D breast
HOP-92 NSCLC = system: HOP-92 NSCLC
SNB-19 CNS = system: SNB-19 CNS
IGROV1 ovarian = system: IGROV1 ovarian
A549 NSCLC = system: A549 NSCLC
HOP-62 NSCLC = system: HOP-62 NSCLC
LOX IMVI melanoma = system: LOX IMVI melanoma
NCI-H226 lung = system: NCI-H226 lung
SF-539 CNS = system: SF-539 CNS
UACC-257 melanoma = system: UACC-257 melanoma
HS 578T breast = system: HS 578T breast
SF-268 CNS = system: SF-268 CNS
M14 melanoma = system: M14 melanoma
BT-549 breast = system: BT-549 breast
PC-3 prostate = system: PC-3 prostate
SK-MEL-5 melanoma = system: SK-MEL-5 melanoma
SK-MEL-28 melanoma = system: SK-MEL-28 melanoma
HCT-116 colon = system: HCT-116 colon
786-0 renal = system: 786-0 renal
SK-MEL-2 melanoma = system: SK-MEL-2 melanoma
SF-295 CNS = system: SF-295 CNS
HCC-2998 colon = system: HCC-2998 colon
TK-10 renal = system: TK-10 renal
ACHN renal = system: ACHN renal
SK-OV-3 ovarian = system: SK-OV-3 ovarian
U251 CNS = system: U251 CNS
RXF 393 renal = system: RXF 393 renal
CCRF-CEM leukemia = system: CCRF-CEM leukemia
DU-145 prostate = system: DU-145 prostate
UO-31 renal = system: UO-31 renal
NCI/ADR-RES ovarian = system: NCI/ADR-RES ovarian
OVCAR-3 ovarian = system: OVCAR-3 ovarian
RPMI-8226 leukemia = system: RPMI-8226 leukemia
NCI-H460 lung = system: NCI-H460 lung
SW-620 colon = system: SW-620 colon
UACC-62 melanoma = system: UACC-62 melanoma
MDA-MB-231 breast = system: MDA-MB-231 breast
HCT-15 colon = system: HCT-15 colon

Cc1cc(N2CCOCC2)nc(N[C@@H]2CCC[C@H](Nc3ccnc4cc(Cl)ccc34)C2)n1
GI50 (MOLT-4 leukemia): 2.28 µM | TGI (MOLT-4 leukemia): 7.19 µM | GI50 (HT29 colon): 2.13 µM | TGI (HT29 colon): 5.24 µM | GI50 (SN12C renal): 2.48 µM | TGI (SN12C renal): 8.68 µM | GI50 (SNB-75 CNS): 1.6 µM | TGI (SNB-75 CNS): 4.01 µM | GI50 (KM12 colon): 3.06 µM | TGI (KM12 colon): 10.8 µM | GI50 (MCF7 breast): 1.76 µM | TGI (MCF7 breast): 4.15 µM | GI50 (COLO 205 colon): 1.68 µM | TGI (COLO 205 colon): 3.33 µM | GI50 (OVCAR-8 ovarian): 2.97 µM | TGI (OVCAR-8 ovarian): 8.49 µM | GI50 (MALME-3M melanoma): 1.95 µM | TGI (MALME-3M melanoma): 3.67 µM | GI50 (MDA-MB-435): 1.86 µM | TGI (MDA-MB-435): 3.39 µM | GI50 (HL-60(TB) leukemia): 1.98 µM | TGI (HL-60(TB) leukemia): 3.87 µM | GI50 (A498 renal): 1.57 µM | TGI (A498 renal): 4.4 µM | GI50 (OVCAR-5 ovarian): 3.1 µM | TGI (OVCAR-5 ovarian): 11.2 µM | GI50 (OVCAR-4 ovarian): 2.8 µM | TGI (OVCAR-4 ovarian): 10.8 µM | GI50 (EKVX NSCLC): 2.86 µM | TGI (EKVX NSCLC): 13.2 µM | GI50 (K-562 leukemia): 1.21 µM | TGI (K-562 leukemia): 3.69 µM | GI50 (NCI-H23 lung): 5.97 µM | TGI (NCI-H23 lung): 21.2 µM | GI50 (NCI-H522 lung): 2.97 µM | TGI (NCI-H522 lung): 6.23 µM | GI50 (SR leukemia): 1.05 µM | TGI (SR leukemia): 3.83 µM | GI50 (T-47D breast): 1.68 µM | TGI (T-47D breast): 3.71 µM | GI50 (HOP-92 NSCLC): 1.44 µM | TGI (HOP-92 NSCLC): 3.08 µM | GI50 (SNB-19 CNS): 3.35 µM | TGI (SNB-19 CNS): 12.2 µM | GI50 (IGROV1 ovarian): 2.23 µM | TGI (IGROV1 ovarian): 6.6 µM | GI50 (A549 NSCLC): 3.31 µM | TGI (A549 NSCLC): 8.56 µM | GI50 (HOP-62 NSCLC): 1.73 µM | TGI (HOP-62 NSCLC): 4.36 µM | GI50 (LOX IMVI melanoma): 1.71 µM | TGI (LOX IMVI melanoma): 3.3 µM | GI50 (NCI-H226 lung): 4.89 µM | TGI (NCI-H226 lung): 17.1 µM | GI50 (SF-539 CNS): 1.61 µM | TGI (SF-539 CNS): 3.09 µM | GI50 (UACC-257 melanoma): 2.14 µM | TGI (UACC-257 melanoma): 3.89 µM | GI50 (HS 578T breast): 1.84 µM | TGI (HS 578T breast): 5.14 µM | GI50 (SF-268 CNS): 1.59 µM | TGI (SF-268 CNS): 4.44 µM | GI50 (M14 melanoma): 2 µM | TGI (M14 melanoma): 3.7 µM | GI50 (BT-549 breast): 2.34 µM | TGI (BT-549 breast): 5.01 µM | GI50 (PC-3 prostate): 2.38 µM | TGI (PC-3 prostate): 6.01 µM | GI50 (SK-MEL-5 melanoma): 1.86 µM | TGI (SK-MEL-5 melanoma): 3.27 µM | GI50 (SK-MEL-28 melanoma): 2.01 µM | TGI (SK-MEL-28 melanoma): 3.8 µM | GI50 (HCT-116 colon): 1.98 µM | TGI (HCT-116 colon): 4.26 µM | GI50 (786-0 renal): 1.73 µM | TGI (786-0 renal): 3.27 µM | GI50 (SK-MEL-2 melanoma): 2.07 µM | TGI (SK-MEL-2 melanoma): 4.02 µM | GI50 (SF-295 CNS): 1.52 µM | TGI (SF-295 CNS): 2.97 µM | GI50 (HCC-2998 colon): 2.05 µM | TGI (HCC-2998 colon): 4.55 µM | GI50 (TK-10 renal): 2.15 µM | TGI (TK-10 renal): 4.09 µM | GI50 (ACHN renal): 1.89 µM | TGI (ACHN renal): 3.91 µM | GI50 (SK-OV-3 ovarian): 3.44 µM | TGI (SK-OV-3 ovarian): 11.9 µM | GI50 (U251 CNS): 2.1 µM | TGI (U251 CNS): 4.4 µM | GI50 (RXF 393 renal): 1.44 µM | TGI (RXF 393 renal): 3.11 µM | GI50 (CCRF-CEM leukemia): 3.31 µM | TGI (CCRF-CEM leukemia): 9.25 µM | GI50 (DU-145 prostate): 3.82 µM | TGI (DU-145 prostate): 14.7 µM | GI50 (UO-31 renal): 1.29 µM | TGI (UO-31 renal): 2.63 µM | GI50 (NCI/ADR-RES ovarian): 2.59 µM | TGI (NCI/ADR-RES ovarian): 8 µM | GI50 (OVCAR-3 ovarian): 2.83 µM | TGI (OVCAR-3 ovarian): 8.62 µM | GI50 (RPMI-8226 leukemia): 2.09 µM | TGI (RPMI-8226 leukemia): 5.25 µM | GI50 (NCI-H460 lung): 2.66 µM | TGI (NCI-H460 lung): 8.64 µM | GI50 (SW-620 colon): 2.07 µM | TGI (SW-620 colon): 5.36 µM | GI50 (UACC-62 melanoma): 1.82 µM | TGI (UACC-62 melanoma): 3.43 µM | GI50 (MDA-MB-231 breast): 1.7 µM | TGI (MDA-MB-231 breast): 3.58 µM | GI50 (HCT-15 colon): 1.4 µM | TGI (HCT-15 colon): 3.54 µM

From PubChem BioAssay (NCI)
